In US12371454B2, “Cyclic peptide compound having Kras inhibitory action” (priority 2019, dated 2025):
Positions of bridges follow the written chain, without caps; N, C: chain ends. Non-standard residues stand in square brackets, D forms with d. Residues, ends and D or L forms follow the SMILES beside them. *: point of attachment. hPhe(3-Cl-4-CF3) = N[C@@H](CCc1ccc(C(F)(F)F)c(Cl)c1)C(=O)O; hPhe(3-F,4-CF3) = N[C@@H](CCc1ccc(C(F)(F)F)c(F)c1)C(=O)O; NMeNle(6-CHF2) = CN[C@@H](CCCCC(F)F)C(=O)O; NMeGly(cPent) = CN[C@H](C(=O)O)C1CCCC1; NMeCha = CN[C@@H](CC1CCCCC1)C(=O)O; NMeAllylGly = C=CC[C@H](NC)C(=O)O; NMeChg = CN[C@H](C(=O)O)C1CCCCC1; dNMeF = CN[C@H](Cc1ccccc1)C(=O)O; αMeF = C[C@](N)(Cc1ccccc1)C(=O)O; NMeD = CN[C@@H](CC(=O)O)C(=O)O; NMeL = CN[C@@H](CC(C)C)C(=O)O; Chg = N[C@H](C(=O)O)C1CCCCC1; dNMeAbu = CC[C@@H](NC)C(=O)O; NMeV = CN[C@H](C(=O)O)C(C)C; d(β3hA) = C[C@@H](N)CC(=O)O; dNMeS = CN[C@H](CO)C(=O)O; NMeA = CN[C@@H](C)C(=O)O; Piperidide = C1CCN(*)CC1; Pyrrolidide = C1CCN(*)C1; Ac5c = NC1(C(=O)O)CCCC1; Aze = O=C(O)[C@@H]1CCN1; Aib = CC(C)(N)C(=O)O; Isopentyl = CC(C)CC*; Sar = CNCC(=O)O

Target: T1, Kras and SOS1 (biotin-tagged human Kras loaded with GDP, His-tagged human SOS1) (Homo sapiens, UniProt P01116, G12D)
T1 construct: made in house; host or cells: E. coli (stated for Kras only)
T1 sequence (P01116 1-188 isoform P01116-2 G12D): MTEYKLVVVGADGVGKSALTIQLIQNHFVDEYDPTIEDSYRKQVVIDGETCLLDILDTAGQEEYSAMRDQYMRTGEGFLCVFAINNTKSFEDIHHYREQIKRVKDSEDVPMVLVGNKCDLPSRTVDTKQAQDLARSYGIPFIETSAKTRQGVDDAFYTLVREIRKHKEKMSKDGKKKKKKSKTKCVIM
Assay: Protein-protein interaction inhibition between Kras and SOS1 (KrasGl2D-SOS PPI) using AlphaScreen
Assay type: binding
Conditions: AlphaScreen; biotin-tagged human Kras loaded with GDP, His-tagged human SOS1; read-out: KRAS G12D-SOS PPI IC50
Outline: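 Energy transfer from nickel-chelate donor beads bound to His-SOS1 to streptavidin acceptor beads bound to biotin-Kras, expressed in E. coli and loaded with GDP after purification, was monitored. Donors were excited at 680 nm; singlet oxygen reaching acceptors gave emission read at 520-620 nm.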

| Structure (SMILES) | IC50 |
| --- | --- |
| CC[C@H](C)[C@@H]1NC(=O)[C@H](CC(C)C)N(C)C(=O)C[C@@H](C(=O)N2CCCCC2)N(C)C(=O)[C@H](C(C)C)N(C)C(=O)C2(CCCC2)NC(=O)[C@@H](COCCC(C)C)N(C)C(=O)[C@H](CCc2ccc(C(F)(F)F)c(Cl)c2)NC(=O)CN(C)C(=O)[C@H](CC2CCCCC2)N(C)C(=O)[C@@H]2CCN2C(=O)[C@H](C)N(C)C1=O [Compound 1437] ([NMeL]I[NMeA][Aze][NMeCha][Sar][hPhe(3-Cl-4-CF3)][dNMeS](Isopentyl)[Ac5c][NMeV][NMeD]-Piperidide; lactam N-11) | 0.081 µM |
| CC[C@@H]1C(=O)NC2(CCCC2)C(=O)N(C)[C@@H](C(C)C)C(=O)N(C)[C@H](C(=O)N2CCCCC2)CC(=O)N(C)[C@@H](CC(C)C)C(=O)N[C@@H]([C@@H](C)CC)C(=O)N(C)[C@@H](C)C(=O)N2CC[C@H]2C(=O)N(C)[C@@H](CC2CCCCC2)C(=O)N(C)CC(=O)N[C@@H](CCc2ccc(C(F)(F)F)c(Cl)c2)C(=O)N1C [Compound 1438] ([NMeL]I[NMeA][Aze][NMeCha][Sar][hPhe(3-Cl-4-CF3)][dNMeAbu][Ac5c][NMeV][NMeD]-Piperidide; lactam N-11) | 0.036 µM |
| CC[C@H](C)[C@@H]1NC(=O)[C@H](CC(C)C)N(C)C(=O)C[C@@H](C(=O)N2CCCCC2)N(C)C(=O)[C@H](C2CCCC2)N(C)C(=O)C2(CCCC2)NC(=O)[C@@H](COCCC(C)C)N(C)C(=O)[C@H](CCc2ccc(C(F)(F)F)c(Cl)c2)NC(=O)CN(C)C(=O)[C@H](CC2CCCCC2)N(C)C(=O)CN(C)C(=O)CN(C)C1=O [Compound 1440] ([NMeL]I[Sar][Sar][NMeCha][Sar][hPhe(3-Cl-4-CF3)][dNMeS](Isopentyl)[Ac5c][NMeGly(cPent)][NMeD]-Piperidide; lactam N-11) | 0.016 µM |
| CC[C@@H]1C(=O)NC2(CCCC2)C(=O)N(C)[C@@H](C2CCCC2)C(=O)N(C)[C@H](C(=O)N2CCCCC2)CC(=O)N(C)[C@@H](CC(C)C)C(=O)N[C@@H]([C@@H](C)CC)C(=O)N(C)[C@@H](C)C(=O)N2CC[C@H]2C(=O)N(C)[C@@H](CC2CCCCC2)C(=O)N(C)CC(=O)N[C@@H](CCc2ccc(C(F)(F)F)c(Cl)c2)C(=O)N1C [Compound 1441] ([NMeL]I[NMeA][Aze][NMeCha][Sar][hPhe(3-Cl-4-CF3)][dNMeAbu][Ac5c][NMeGly(cPent)][NMeD]-Piperidide; lactam N-11) | 0.0064 µM |
| CC[C@H](C)[C@@H]1NC(=O)[C@H](CC(C)C)N(C)C(=O)C[C@@H](C(=O)N2CCCCC2)N(C)C(=O)[C@H](C(C)C)N(C)C(=O)C2(CCCC2)NC(=O)[C@@H](Cc2ccccc2)N(C)C(=O)[C@H](CCc2ccc(C(F)(F)F)c(Cl)c2)NC(=O)CN(C)C(=O)[C@H](CC2CCCCC2)N(C)C(=O)[C@@H]2CCN2C(=O)[C@H](C)N(C)C1=O [Compound 1442] ([NMeL]I[NMeA][Aze][NMeCha][Sar][hPhe(3-Cl-4-CF3)][dNMeF][Ac5c][NMeV][NMeD]-Piperidide; lactam N-11) | 0.28 µM |
| CC[C@H](C)[C@@H]1NC(=O)[C@H](CC(C)C)N(C)C(=O)C[C@@H](C(=O)N2CCCCC2)N(C)C(=O)[C@H](C2CCCC2)N(C)C(=O)C2(CCCC2)NC(=O)[C@@H](COCCC(C)C)N(C)C(=O)[C@H](CCc2ccc(C(F)(F)F)c(Cl)c2)NC(=O)CN(C)C(=O)[C@H](CC2CCCCC2)N(C)C(=O)[C@@H]2CCN2C(=O)[C@H](C)N(C)C1=O [Compound 1443] ([NMeL]I[NMeA][Aze][NMeCha][Sar][hPhe(3-Cl-4-CF3)][dNMeS](Isopentyl)[Ac5c][NMeGly(cPent)][NMeD]-Piperidide; lactam N-11) | 0.023 µM |
| CC[C@H](C)[C@@H]1NC(=O)[C@H](CC(C)C)N(C)C(=O)C[C@@H](C(=O)N2CCCCC2)N(C)C(=O)[C@H](C(C)C)N(C)C(=O)C2(CCCC2)NC(=O)[C@@H](CO)N(C)C(=O)[C@H](CCc2ccc(C(F)(F)F)c(Cl)c2)NC(=O)CN(C)C(=O)[C@H](CC2CCCCC2)N(C)C(=O)[C@@H]2CCN2C(=O)[C@H](C)N(C)C1=O [Compound 1444] ([NMeL]I[NMeA][Aze][NMeCha][Sar][hPhe(3-Cl-4-CF3)][dNMeS][Ac5c][NMeV][NMeD]-Piperidide; lactam N-11) | 0.0088 µM |
| C=CC[C@H]1C(=O)NC2(CCCC2)C(=O)N(C)[C@@H](C(C)C)C(=O)N(C)[C@H](C(=O)N2CCCCC2)CC(=O)N(C)[C@@H](CC(C)C)C(=O)N[C@@H]([C@@H](C)CC)C(=O)N(C)[C@@H](C)C(=O)N2CC[C@H]2C(=O)N(C)[C@@H](CC2CCCCC2)C(=O)N(C)CC(=O)N[C@@H](CCc2ccc(C(F)(F)F)c(Cl)c2)C(=O)N1C [Compound 1447] ([NMeL]I[NMeA][Aze][NMeCha][Sar][hPhe(3-Cl-4-CF3)][NMeAllylGly][Ac5c][NMeV][NMeD]-Piperidide; lactam N-11) | 0.1 µM |
| C=CC[C@H]1C(=O)NC2(CCCC2)C(=O)N(C)[C@@H](C2CCCCC2)C(=O)N(C)[C@H](C(=O)N2CCCCC2)CC(=O)N(C)[C@@H](CC(C)C)C(=O)N[C@@H]([C@@H](C)CC)C(=O)N(C)CC(=O)N(C)CC(=O)N(C)[C@@H](CC2CCCCC2)C(=O)N(C)CC(=O)N[C@@H](CCc2ccc(C(F)(F)F)c(Cl)c2)C(=O)N1C [Compound 1449] ([NMeL]I[Sar][Sar][NMeCha][Sar][hPhe(3-Cl-4-CF3)][NMeAllylGly][Ac5c][NMeChg][NMeD]-Piperidide; lactam N-11) | 0.014 µM |
| CC(C)C[C@H]1C(=O)N[C@@H](C2CCCCC2)C(=O)N(C)CC(=O)N(C)CC(=O)N(C)[C@@H](CCCCC(F)F)C(=O)N(C)CC(=O)N[C@@H](CCc2ccc(C(F)(F)F)c(F)c2)C(=O)N(C)[C@@H](CC(C)C)C(=O)N[C@@](C)(Cc2ccccc2)C(=O)N(C)[C@@H](CC(C)C)C(=O)N[C@H](C(=O)N2CCCC2)CC(=O)N1C [Compound 1450] ([NMeL][Chg][Sar][Sar][NMeNle(6-CHF2)][Sar][hPhe(3-F,4-CF3)][NMeL][αMeF][NMeL]D-Pyrrolidide; lactam N-11) | 0.22 µM |
| CC(C)C[C@H]1C(=O)N[C@@H](C(C)C)C(=O)N(C)CC(=O)N(C)CC(=O)N(C)[C@@H](CC2CCCCC2)C(=O)N(C)CC(=O)N[C@@H](CCc2ccc(C(F)(F)F)c(Cl)c2)C(=O)N2CCC[C@H]2C(=O)NC2(CCCC2)C(=O)N(C)[C@@H](CC(C)C)C(=O)N[C@H](C)CC(=O)N1C [Compound 1452] (cyclo([Ac5c][NMeL][d(β3hA)][NMeL]V[Sar][Sar][NMeCha][Sar][hPhe(3-Cl-4-CF3)]P)) | 0.038 µM |
| CC(C)C[C@H]1C(=O)N[C@@H](C2CCCCC2)C(=O)N(C)CC(=O)N(C)CC(=O)N(C)[C@@H](CCCCC(F)F)C(=O)N(C)CC(=O)N[C@@H](CCc2ccc(C(F)(F)F)c(F)c2)C(=O)N(C)[C@@H](CC(C)C)C(=O)NC(C)(C)C(=O)N(C)[C@@H](CC(C)C)C(=O)N[C@H](C(=O)N2CCCC2)CC(=O)N1C [Compound 1453] ([NMeL][Chg][Sar][Sar][NMeNle(6-CHF2)][Sar][hPhe(3-F,4-CF3)][NMeL][Aib][NMeL]D-Pyrrolidide; lactam N-11) | 0.11 µM |
| CC[C@H](C)[C@@H]1NC(=O)[C@H](CC(C)C)N(C)C(=O)C[C@@H](C(=O)N2CCCC2)NC(=O)[C@H](CC(C)C)N(C)C(=O)C(C)(C)NC(=O)[C@H](CC(C)C)N(C)C(=O)[C@H](CCc2ccc(C(F)(F)F)c(F)c2)NC(=O)CN(C)C(=O)[C@H](CCCCC(F)F)N(C)C(=O)CN(C)C(=O)CN(C)C1=O [Compound 1455] ([NMeL]I[Sar][Sar][NMeNle(6-CHF2)][Sar][hPhe(3-F,4-CF3)][NMeL][Aib][NMeL]D-Pyrrolidide; lactam N-11) | 0.03 µM |
